The results in this text go back to US20240360151A1 (SANOFI, priority 2023, published 2024).

Structures are written as SMILES.

The target in the test is T1, NLRP3 inflammasome (Homo sapiens, UniProt Q96P20).
T1 construct: endogenous in cells; host or cells: THP-1 monocytic cells
T1 sequence (Q96P20 whole entry): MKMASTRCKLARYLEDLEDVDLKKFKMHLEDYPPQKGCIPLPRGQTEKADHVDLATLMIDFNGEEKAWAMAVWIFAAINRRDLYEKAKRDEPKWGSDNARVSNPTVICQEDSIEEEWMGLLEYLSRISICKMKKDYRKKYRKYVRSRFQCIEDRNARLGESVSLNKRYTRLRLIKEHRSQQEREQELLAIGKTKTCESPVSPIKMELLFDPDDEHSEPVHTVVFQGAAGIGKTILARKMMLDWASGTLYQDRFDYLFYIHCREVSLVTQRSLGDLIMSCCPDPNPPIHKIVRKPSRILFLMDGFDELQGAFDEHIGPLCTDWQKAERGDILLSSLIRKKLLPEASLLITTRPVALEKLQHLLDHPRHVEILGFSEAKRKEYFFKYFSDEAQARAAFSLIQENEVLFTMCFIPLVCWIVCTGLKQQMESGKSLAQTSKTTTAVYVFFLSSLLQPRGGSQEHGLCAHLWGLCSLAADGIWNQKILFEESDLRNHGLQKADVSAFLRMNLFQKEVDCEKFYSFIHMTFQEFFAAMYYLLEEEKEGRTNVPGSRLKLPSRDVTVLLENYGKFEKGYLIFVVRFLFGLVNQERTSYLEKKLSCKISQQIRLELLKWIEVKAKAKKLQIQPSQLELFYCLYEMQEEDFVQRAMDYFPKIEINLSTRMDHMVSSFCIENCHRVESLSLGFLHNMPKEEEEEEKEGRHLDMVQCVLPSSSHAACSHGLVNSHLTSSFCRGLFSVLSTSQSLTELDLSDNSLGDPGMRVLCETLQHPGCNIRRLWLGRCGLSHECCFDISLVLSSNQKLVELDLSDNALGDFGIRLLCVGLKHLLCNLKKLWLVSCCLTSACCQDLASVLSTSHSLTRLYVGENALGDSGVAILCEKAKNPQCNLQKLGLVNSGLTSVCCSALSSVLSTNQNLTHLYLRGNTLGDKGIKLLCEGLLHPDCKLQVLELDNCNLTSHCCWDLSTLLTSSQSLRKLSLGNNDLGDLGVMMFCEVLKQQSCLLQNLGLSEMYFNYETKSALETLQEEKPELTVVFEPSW
The test is described as follows: IL-1β secretion assay (NLRP3 IC50) in LPS-primed, nigericin-activated THP-1 cells, HTRF. The following applies: monocytic THP-1 cells; LPS 10 ng/mL 3 h priming, then compound + nigericin 10 μM 2 h; relative IC50, 10 concentrations, geometric mean. It counts as cell-based. As to the method: Monocytic THP-1 cells were maintained in RPMI 1640 media (Gibco 21875)+10% FBS, (Gibco 10500)+1% penicillin/streptomycin (Gibco 15140-122). Cells were then plated at 40,000 cells per well in 384-well cell culture plates (CoRNning 3542) and maintained with RPMI1640 (Gibco 11835)+5% FBS (Gibco 10500). Activation of the NLRP3 inflammasome requires both an NF-kB-dependent priming step and the addition of a NLRP3 activator. The priming step was induced by LPS (10 ng/mL, InvivoGen ref tlrl-3pelps) for 3 h at 37° C., then compound, in a 1:3 serial dilution series in DMSO (final concentration DMSO 0.1%), and the activator nigericin (Sigma Aldrich, ref: SML1779) 10 μM (final concentration) were added to the cells and co-incubated for 2 hours. 16 μL supernatant was removed, and IL-1β levels were monitored using an HTRF assay (Human IL1b Kits HTRF Cisbio ref: 62HILBPEH) according to manufacturers' instructions.
Data were expressed as percentage of inhibition (I %) as compared to a maximum signal control containing no small molecule (I %=0%) according to the formula: 1%=(1−((Sample−Min))/((Max−Min)))×100, where: • Sample: Signal obtained in the presence of each compound tested, • Max: Maximum signal in the absence of compound added, • Min: Minimum or background signal obtained in the absence of activation signal.
Relative IC50 (IC50 rel) were obtained from a dose response curve with 10 concentrations. Final IC50 rels are expressed as the geometric mean.
Relative IC50 values were estimated with Biost@t-SPEED v2.4 internal software based on SAS system using the 4-parameter logistic model according to Ratkovsky and Reedy (D. A. Ratkovsky, T. J. Reedy, Choosing near-linear parameters in the four parameters logistic model radioligands and related assays. Biometrics, 42 (1986), 575-582): Y=A+C/((1+exp(−B*(log(X)−M)))), where: • A: Lower asymptote (BOTTOM), • A+C: Upper asymptote (TOP), • M: the logarithm of the concentration estimated at the inflexion point (the logarithm of the relative IC50), • B: Slope at the inflexion point of the curve.
For the compound `COC[C@H]1CCN(c2ccc(-c3c(C)cc(C)cc3O)nn2)C1` [Example 82, 2-[6-[(3S)-3-(methoxymethyl)pyrrolidin-1-yl]pyridazin-3-yl]-3,5-dimethyl-phenol], the IC50 (usually the concentration at which inhibition is half-maximal) came out at 481 nM.

Consider `Cc1cc(Cl)cc(O)c1-c1ccc(N2CC[C@H]3CCN(C)C[C@H]32)nn1` (single isomer, unassigned) [Example 503], for which the IC50 was 0.5 nM.

As for `CCc1cc(C(F)(F)F)cc(O)c1-c1ccc(N2CC[C@H]3CCN(C)C[C@H]32)nn1` (single isomer, unassigned) [Example 491], the IC50 worked out at 185 nM.

As to `Cc1cc(C)c(-c2ccc(N3CC[C@@]4(COCCN4C)C3)nn2)c(O)c1` [Example 451, 3,5-dimethyl-2-[6-[(5S)-6-methyl-9-oxa-2,6-diazaspiro[4.5]decan-2-yl]pyridazin-3-yl]phenol], the half-maximal inhibitory concentration (IC50) was 1650 nM.

As for `CCN1CC[C@H]2OCCN(c3cc(C(F)F)c(-c4ccc(Cl)cc4O)nn3)[C@H]2C1` [Example 456, 2-[6-[(4aS,8aR)-6-ethyl-3,4a,5,7,8,8a-hexahydro-2H-pyrido[4,3-b][1,4]oxazin-4-yl]-4-(difluoromethyl)pyridazin-3-yl]-5-chloro-phenol], the IC50 was 2 nM.

As for `Cc1cc(C)c(-c2cc(C)c(N3CCO[C@H](CO)C3)nn2)c(O)c1` [Example 109, 2-[6-[(2S)-2-(hydroxymethyl)morpholin-4-yl]-5-methyl-pyridazin-3-yl]-3,5-dimethyl-phenol], the concentration for half-maximal inhibition (IC50) was 89 nM.

Take `Cc1cc(C)c(-c2ccc(N3CCC[C@@H]4CCNC(=O)[C@@H]43)nn2)c(O)c1` (racemic) [Example 300, rac-(4aR,8aR)-1-[6-(2-hydroxy-4,6-dimethyl-phenyl)pyridazin-3-yl]-2,3,4,4a,5,6,7,8a-octahydro-1,7-naphthyridin-8-one]: the IC50 was 177 nM.

`Cc1cc(C)c(-c2ccc(N3CCO[C@@H]4CCNC[C@@H]43)nn2)c(O)c1` [Example 315, 2-[6-[(4aS,8aR)-2,3,4a,5,6,7,8,8a-octahydropyrido[4,3-b][1,4]oxazin-4-yl]pyridazin-3-yl]-3,5-dimethyl-phenol]: the IC50 worked out at 511 nM.

In the case of `Cc1cc(N2CCO[C@@H]3CCN(C)C[C@@H]32)nnc1-c1ccc2c(c1O)CCC2` [Example 471, 5-[6-[(4aS,8aR)-6-methyl-3,4a,5,7,8,8a-hexahydro-2H-pyrido[4,3-b][1,4]oxazin-4-yl]-4-methyl-pyridazin-3-yl]indan-4-ol], the half-inhibitory concentration (IC50) was found to be 1 nM.

For the compound `Cc1cc(C)c(-c2ccc(N3CC4(CCC(O)C4)C3)nn2)c(O)c1` (stereo not drawn) [Example 84, 2-[6-(2-hydroxy-4,6-dimethyl-phenyl)pyridazin-3-yl]-2-azaspiro[3.4]octan-6-ol], the IC50 worked out at 1770 nM.

As for `NCC1CCN(c2ccc(-c3c(O)cc(Cl)cc3Cl)nn2)CC1` [Example 19, 2-[6-[4-(aminomethyl)-1-piperidyl]pyridazin-3-yl]-3,5-dichloro-phenol], the IC50 is 1480 nM.

On to `OC[C@@H]1CN(c2ccc(-c3c(O)cccc3F)nn2)CCO1` [Example 44, 3-fluoro-2-[6-[(2S)-2-(hydroxymethyl)morpholin-4-yl]pyridazin-3-yl]phenol], for which the half-maximal inhibitory concentration (IC50) is 862 nM.

`Cc1cc(C(F)(F)F)cc(O)c1-c1ccc(N2CCOC(CN(C)C)C2)nn1` (stereo not drawn) [Example 24, 2-[6-[2-[(dimethylamino)methyl]morpholin-4-yl]pyridazin-3-yl]-3-methyl-5-(trifluoromethyl)phenol]: the IC50 came out at 638 nM.

For the compound `Cc1cc(C)c(-c2cc(C(F)F)c(N3CC[C@@H]4CCN(C)C[C@@H]43)nn2)c(O)c1` (single isomer, unassigned) [Example 488], the IC50 turned out to be 912 nM.

In the case of `CCN1CC[C@H]2CCN(c3cc(C(F)F)c(-c4ccc(C)cc4O)nn3)[C@H]2C1` (single isomer, unassigned) [Example 490], the half-maximal inhibitory concentration (IC50) amounted to 1 nM.

In the case of `CCN1CCOCC2(C1)CN(c1ccc(-c3c(C)cc(C)cc3O)nn1)CCO2` (stereo not drawn) [Example 208, 2-[6-(8-ethyl-1,11-dioxa-4,8-diazaspiro[5.6]dodecan-4-yl)pyridazin-3-yl]-3,5-dimethylphenol], the IC50 amounted to 972 nM.

Take `Cc1cc(C)c(-c2ccc(N3CCOC([C@H](C)O)C3)nn2)c(O)c1` (single isomer, unassigned) [Example 98]: the half-maximal inhibitory concentration (IC50) was determined as 298 nM.

For the compound `CCN1CC[C@H]2CCN(c3cc(C)c(-c4ccc(C)cc4O)nn3)[C@H]2C1` (single isomer, unassigned) [Example 475], the IC50 was found to be 93 nM.

Take `CCN1CCN(c2ccc(-c3c(C)cc(C)cc3O)nn2)CC12CCOC2` (stereo not drawn) [Example 227, 2-[6-(6-ethyl-2-oxa-6,9-diazaspiro[4.5]decan-9-yl)pyridazin-3-yl]-3,5-dimethylphenol]: the IC50 came out at 1190 nM.

As to `CCN1CC[C@H]2CCN(c3ccc(-c4c(C)cc(C)cc4O)nn3)[C@H]2C1` (single isomer, unassigned) [Example 504], the IC50 worked out at 1080 nM.

With `Cc1cc(C(F)(F)F)cc(O)c1-c1ccc(N2CCO[C@@H](CF)C2)nn1` (single isomer, unassigned) [Example 283], the IC50 came to 135 nM.

For the compound `NC1CC2(CCN(c3ccc(-c4c(O)cc(Cl)cc4Cl)nn3)CC2)C1` [Example 32, 2-[6-(2-amino-7-azaspiro[3.5]nonan-7-yl)pyridazin-3-yl]-3,5-dichloro-phenol], the IC50 was found to be 3500 nM.

In the case of `CCc1cc(Cl)cc(O)c1-c1ccc(N2CC[C@@H]3CCN(C)C[C@@H]32)nn1` (single isomer, unassigned) [Example 494], the 50% inhibitory concentration (IC50) amounted to 1 nM.

On to `Cc1cc(C)c(-c2ccc(N3C4CCC3COC4)nn2)c(O)c1` [Example 120, 3,5-dimethyl-2-[6-(3-oxa-8-azabicyclo[3.2.1]octan-8-yl)pyridazin-3-yl]phenol], for which the IC50 is 2520 nM.

For the compound `CN1CC[C@H]2CCN(c3cc(C(F)F)c(-c4ccc(Cl)cc4O)nn3)[C@H]2C1` (single isomer, unassigned) [Example 500], the half-maximal inhibitory concentration (IC50) is 62 nM.

With `Cc1cc(C)c(-c2ccc(N3CCC[C@@H]4CCN(C)C[C@H]43)nn2)c(O)c1` [Example 517, 2-[6-[(4aR,8aS)-7-methyl-2,3,4,4a,5,6,8,8a-octahydro-1,7-naphthyridin-1-yl]pyridazin-3-yl]-3,5-dimethyl-phenol], the concentration for half-maximal inhibition (IC50) amounted to 1340 nM.

Regarding `Cc1cc(C)c(-c2ccc(N3CCC[C@@H]4CCN(C)C(=O)[C@@H]43)nn2)c(O)c1` (racemic) [Example 290, rac-(4aR,8aR)-1-[6-(2-hydroxy-4,6-dimethyl-phenyl)pyridazin-3-yl]-7-methyl-3,4,4a,5,6,8a-hexahydro-2H-1,7-naphthyridin-8-one], the half-maximal inhibitory concentration (IC50) worked out at 145 nM.

In the case of `CCN1CC[C@H]2CCN(c3cc(C(F)F)c(-c4ccc(C(F)(F)F)cc4O)nn3)[C@H]2C1` (single isomer, unassigned) [Example 486], the IC50 was under 0.3 nM.

For the compound `Cc1cc(C)c(-c2ccc(N3CC(=O)N[C@@H](CO)C3)nn2)c(O)c1` (single isomer, unassigned) [Example 329], the IC50 amounted to 711 nM.

On to `Cc1cc(C)c(-c2ccc(N3CCO[C@@H](C(=O)N(C)C)C3)nn2)c(O)c1` [Example 184, (2R)-4-[6-(2-hydroxy-4,6-dimethylphenyl)pyridazin-3-yl]-N,N-dimethylmorpholine-2-carboxamide], for which the half-maximal inhibitory concentration (IC50) came out at 660 nM.
